Data from US9777005B2 (Takeda Pharmaceutical Company Limited, priority 2012, dated 2017).

Molecular target: T1, human M1 receptor (hCHRM1) (Homo sapiens, UniProt P11229)
T1 construct: expressed in transfected cells; host or cells: CHO-K1
T1 sequence (P11229 1-460): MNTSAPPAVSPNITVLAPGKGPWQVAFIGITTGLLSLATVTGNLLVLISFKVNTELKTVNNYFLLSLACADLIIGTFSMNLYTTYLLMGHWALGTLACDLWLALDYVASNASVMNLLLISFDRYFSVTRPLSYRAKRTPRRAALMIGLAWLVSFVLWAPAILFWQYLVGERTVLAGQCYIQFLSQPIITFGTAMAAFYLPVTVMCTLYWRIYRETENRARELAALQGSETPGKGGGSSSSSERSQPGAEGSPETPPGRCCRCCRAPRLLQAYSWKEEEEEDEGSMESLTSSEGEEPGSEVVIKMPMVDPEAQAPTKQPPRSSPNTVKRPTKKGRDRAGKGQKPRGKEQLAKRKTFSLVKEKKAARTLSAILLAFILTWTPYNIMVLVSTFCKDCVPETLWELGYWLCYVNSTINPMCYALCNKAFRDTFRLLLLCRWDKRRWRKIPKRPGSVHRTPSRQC
Experiment: Measurement of M1 receptor positive allosteric modulator (M1PAM) activity, calcium fluorescence (FLIPRtetra) in CHO-K1 cells in the presence of acetylcholine at EC20
Format: cell-based
Conditions: in the presence of acetylcholine at EC20 (final 0.6 nM), CHO-K1 cells expressing hCHRM1; for EC50: inflection point of M1PAM activity, read-out: IP value; for activity (%) at 10 μM: test compound 10 μM
How it was run: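 PAM activity was measured as calcium flux by FLIPRtetra over 1 min after co-addition of compound and EC20 acetylcholine (final 0.6 nM) to Fluo-4-loaded hCHRM1 CHO-K1 cells. The response was scaled between DMSO (0%) and 1 μM acetylcholine (100%), and the inflection point of the concentration curve gives the IP value.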

| Structure (SMILES) | EC50 [nM] | activity (%) at 10 μM [%] |
| --- | --- | --- |
| Cn1cc(-c2ccc(CN3Cc4cccc(Oc5c(F)cc(N)cc5Cl)c4C3=O)cc2)cn1 [Example 11, 7-(4-amino-2-chloro-6-fluorophenoxy)-2-(4-(1-methyl-1H-pyrazol-4-yl)benzyl)isoindolin-1-one] | 65 | 102 |
| Cn1cc(-c2ccc(CN3Cc4cccc(Oc5c(F)cccc5Cl)c4C3=O)cc2)cn1 [Example 12, 7-(2-chloro-6-fluorophenoxy)-2-(4-(1-methyl-1H-pyrazol-4-yl)benzyl)isoindolin-1-one] | 36 | 57 |
| Cn1cc(-c2ccc(CN3Cc4cccc(OC[C@H]5CCCO5)c4C3=O)cc2)cn1 [Example 13, 2-(4-(1-methyl-1H-pyrazol-4-yl)benzyl)-7-((2R)-(tetrahydrofuran-2-yl)methoxy)isoindolin-1-one] | 43 | 102 |
| Cn1cc(-c2ccc(CN3Cc4cccc(OCC(=O)N5CCCCC5)c4C3=O)cc2)cn1 [Example 16, 2-(4-(1-methyl-1H-pyrazol-4-yl)benzyl)-7-(2-oxo-2-(piperidin-1-yl)ethoxy)isoindolin-1-one] | 47 | 106 |
| Cn1cc(-c2ccc(CN3Cc4cccc(OCCO)c4C3=O)cc2)cn1 [Example 17, 7-(2-hydroxyethoxy)-2-(4-(1-methyl-1H-pyrazol-4-yl)benzyl)isoindolin-1-one] | 120 | 118 |
| Cn1cc(-c2ccc(CN3Cc4cccc(OCCN5CCC(F)(F)CC5)c4C3=O)cc2)cn1 [Example 18, 7-(2-(4,4-difluoropiperidin-1-yl)ethoxy)-2-(4-(1-methyl-1H-pyrazol-4-yl)benzyl)isoindolin-1-one] | 60 | 107 |
| Cn1cc(-c2ccc(CN3Cc4cccc(OCCn5cccn5)c4C3=O)cc2)cn1 [Example 19, 2-(4-(1-methyl-1H-pyrazol-4-yl)benzyl)-7-(2-(H-pyrazol-1-yl)ethoxy)isoindolin-1-one] | 110 | 91 |
| Cn1cc(-c2ccc(CN3Cc4cccc(Oc5cccnc5C#N)c4C3=O)cc2)cn1 [Example 20, 3-((2-(4-(1-methyl-1H-pyrazol-4-yl)benzyl)-3-oxo-2,3-dihydro-1H-isoindol-4-yl)oxy)pyridine-2-carbonitrile] | 80 | 100 |
| Cn1cc(-c2ccc(CN3Cc4cccc(OCCN5CCCCC5)c4C3=O)cc2)cn1 [Example 21, 2-(4-(1-methyl-1H-pyrazol-4-yl)benzyl)-7-(2-(piperidin-1-yl)ethoxy)isoindolin-1-one] | 96 | 105 |
| Cc1n[nH]c(C)c1Oc1cccc2c1C(=O)N(Cc1ccc(-c3cnn(C)c3)cc1)C2 [Example 22, 7-((3,5-dimethyl-1H-pyrazol-4-yl)oxy)-2-(4-(1-methyl-1H-pyrazol-4-yl)benzyl)isoindolin-1-one] | 190 | 103 |
| O=C(NCC1CCCO1)c1ccc(CN2Cc3cccc(OCC4CCCO4)c3C2=O)cc1 (stereo not drawn) [Example 38, 4-((1-oxo-7-((tetrahydrofuran-2-yl)methoxy)-1,3-dihydro-2H-isoindol-2-yl)methyl)-N-((tetrahydrofuran-2-yl)methyl)benzamide] | 44 | 118 |
| Cl.N#Cc1cccc(F)c1Oc1cccc2c1C(=O)N(Cc1ccc(-c3ccn[nH]3)cc1)C2 [Example 42, 3-fluoro-2-((3-oxo-2-(4-(1H-pyrazol-5-yl)benzyl)-2,3-dihydro-1H-isoindol-4-yl)oxy)benzonitrile hydrochloride] | 85 | 107 |
| O=C1c2c(cccc2OCC2CCCO2)CN1Cc1ccc(-n2cccn2)cc1 (stereo not drawn) [Example 53, 2-(4-(1H-pyrazol-1-yl)benzyl)-7-((tetrahydrofuran-2-yl)methoxy)isoindolin-1-one] | 270 | 90 |
| Cn1cc(-c2ccc(CN3Cc4nccc(OCC5CCCO5)c4C3=O)cc2)cn1 (stereo not drawn) [Example 59, 6-(4-(1-methyl-1H-pyrazol-4-yl)benzyl)-4-((tetrahydrofuran-2-yl)methoxy)-6,7-dihydro-5H-pyrrolo[3,4-b]pyridin-5-one] | 57 | 136 |
| O=C1c2c(OCC3CCCO3)ccnc2CN1Cc1ccc(-n2cccn2)cc1 (stereo not drawn) [Example 60, 6-(4-(1H-pyrazol-1-yl)benzyl)-4-((tetrahydrofuran-2-yl)methoxy)-6,7-dihydro-5H-pyrrolo[3,4-b]pyridin-5-one] | 320 | 115 |
| O=C1c2c(ccnc2OCC2CCCO2)CN1Cc1ccc(-n2cccn2)cc1 (stereo not drawn) [Example 61, 2-(4-(1H-pyrazol-1-yl)benzyl)-4-((tetrahydrofuran-2-yl)methoxy)-1H-pyrrolo[3,4-c]pyridin-3(2H)-one] | 37 | 113 |
| Cn1cc(-c2ccc(CN3Cc4cccc(Oc5c(F)cccc5C#N)c4C3=O)cn2)cn1 [Example 65, 3-fluoro-2-((2-((6-(1-methyl-1H-pyrazol-4-yl)pyridin-3-yl)methyl)-3-oxo-2,3-dihydro-1H-isoindol-4-yl)oxy)benzonitrile] | 63 | 76 |
| N#Cc1cccc(F)c1Oc1cccc2c1C(=O)N(Cc1ccc(-n3cccn3)cc1)C2 [Example 66, 3-fluoro-2-((3-oxo-2-(4-(1H-pyrazol-1-yl)benzyl)-2,3-dihydro-1H-isoindol-4-yl)oxy)benzonitrile] | 69 | 101 |
| Cn1cc(-c2ccc(CN3Cc4cccc(Oc5c(F)cccc5C#N)c4C3=O)c(Cl)c2)cn1 [Example 68, 2-((2-(2-chloro-4-(1-methyl-1H-pyrazol-4-yl)benzyl)-3-oxo-2,3-dihydro-1H-isoindol-4-yl)oxy)-3-fluorobenzonitrile] | 72 | 109 |

Other lines, results leading:

| EC50 [nM] | activity (%) at 10 μM [%] | Structure (SMILES) |
| --- | --- | --- |
| 410 | 103 | Cn1cc(-c2coc(CN3Cc4cccc(Oc5c(F)cccc5C#N)c4C3=O)c2)cn1 [Example 69, 3-fluoro-2-((2-((4-(1-methyl-1H-pyrazol-4-yl)-2-furyl)methyl)-3-oxo-2,3-dihydro-1H-isoindol-4-yl)oxy)benzonitrile] |
| 88 | 102 | Cc1cc(-c2ccc(CN3Cc4cccc(Oc5c(F)cccc5C#N)c4C3=O)cc2)ccn1 [Example 72, 3-fluoro-2-((2-(4-(2-methylpyridin-4-yl)benzyl)-3-oxo-2,3-dihydro-1H-isoindol-4-yl)oxy)benzonitrile] |
| 24 | 99 | Cn1cc(-c2ccc(CN3Cc4cccc(Oc5c(F)cc(F)cc5C#N)c4C3=O)cc2)cn1 [Example 73] |
| 10 | 104 | Cc1nn(C)cc1-c1ccc(CN2Cc3ccnc(OCC4CCCO4)c3C2=O)cc1 (stereo not drawn) [Example 78, 2-(4-(1,3-dimethyl-1H-pyrazol-4-yl)benzyl)-4-((tetrahydrofuran-2-yl)methoxy)-1,2-dihydro-3H-pyrrolo[3,4-c]pyridin-3-one] |
| 29 | 114 | Cn1ccc(-c2ccc(CN3Cc4ccnc(OCC5CCCO5)c4C3=O)cc2)n1 (stereo not drawn) [Example 79, 2-(4-(1-methyl-1H-pyrazol-3-yl)benzyl)-4-((tetrahydrofuran-2-yl)methoxy)-1,2-dihydro-3H-pyrrolo[3,4-c]pyridin-3-one] |
| 5.6 | 100 | Cc1cc(-c2ccc(CN3Cc4ccnc(OCC5CCCO5)c4C3=O)cc2)ccn1 (stereo not drawn) [Example 80] |
| 170 | 57 | O=C1c2c(cccc2Oc2c(F)cccc2Cl)CN1Cc1ccc(-c2ccnnc2)cc1 [Example 81, 7-(2-chloro-6-fluorophenoxy)-2-(4-(pyridazin-4-yl)benzyl)isoindolin-1-one] |
| 17 | 104 | O=C1c2c(ccnc2OCC2CCCO2)CN1Cc1ccc(-n2cccn2)cc1F (stereo not drawn) [Example 86, 2-(2-fluoro-4-(1H-pyrazol-1-yl)benzyl)-4-((tetrahydrofuran-2-yl)methoxy)-1,2-dihydro-3H-pyrrolo[3,4-c]pyridin-3-one] |
| 51 | 104 | Cc1nn(C)cc1-c1ccc(CN2Cc3ccnc(OCCn4cccn4)c3C2=O)cc1 [Example 225, 2-(4-(1,3-dimethyl-1H-pyrazol-4-yl)benzyl)-4-(2-(1H-pyrazol-1-yl)ethoxy)-1,2-dihydro-3H-pyrrolo[3,4-c]pyridin-3-one] |
| 6.1 | 117 | Cc1nn(C)cc1-c1ccc(CN2Cc3ccnc(OCC4CCCO4)c3C2=O)c(F)c1 (stereo not drawn) [Example 229, 2-(4-(1,3-dimethyl-1H-pyrazol-4-yl)-2-fluorobenzyl)-4-((tetrahydrofuran-2-yl)methoxy)-1,2-dihydro-3H-pyrrolo[3,4-c]pyridin-3-one] |
| 10 | 113 | Cn1ccc(-c2ccc(CN3Cc4ccnc(OCC5CCCO5)c4C3=O)c(F)c2)n1 (stereo not drawn) [Example 230, 2-(2-fluoro-4-(1-methyl-1H-pyrazol-3-yl)benzyl)-4-((tetrahydrofuran-2-yl)methoxy)-1,2-dihydro-3H-pyrrolo[3,4-c]pyridin-3-one] |
